Ten compounds from patent US20260364184A1, “COMPOUND BASED ON OXOISOINDOLINYL-SUBSTITUTED TETRAHYDROPYRIMIDINE-DIONE AND USE THEREOF” (GLUETACS THERAPEUTICS (SHANGHAI) CO., LTD., priority 2023, published 2026) can be followed below.

Assay type in all cases: cell-based
Common to all, as to conditions: hPBMC Cell; 24 hours

One assay concerns the target T1, IKZF2 (Homo sapiens, UniProt Q96SW2+Q9UKS7).
T1 construct: expression of target proteins in cells; endogenous in cells
The assay is described as follows: Western blot degradation of IKZF2. As for the experimental part:
(§1) Conventional Western blot assay was performed to evaluate the effects of the compounds of the present disclosure on the expression of target proteins in cells.
(§2) (1) Cell Seeding and Protein Harvesting: The selected cells were processed according to the cell seeding procedure and protein harvesting procedure in Table II-2.
(§3) (2) To the collected supernatant, 5×SDS sample loading buffer was added, followed by denaturation at 95 °C for 5 minutes. The denatured samples were then separated by SDS-PAGE electrophoresis on a polyacrylamide gel. Proteins were transferred to a nitrocellulose membrane (0.45 μm NC membrane), blocked with blocking buffer at room temperature for 1 hour, and subjected to antibody incubation and development procedures according to the antibody manufacturer's instructions (Cell Signaling Technology).
(§4) Half-Maximal Degradation Concentration value (the drug concentration required for degrading proteins by 50%, abbreviated as DC50) reads method: comparing the grayscale values of Western blot bands from drug-treated samples with those from blank DMSO-treated controls, and identifying the drug concentration range at which the grayscale value is half that of the DMSO-treated control bands.
(§5) DC50 values can be calculated using ImageJ software to measure grayscale values of Western blot bands from drug-treated samples. The concentration-response curve is fitted to estimate the drug concentration corresponding to half the grayscale value.
(§6) Target protein remaining (%) refers to the percentage of target protein remaining in cells after treatment with protein degrader compounds.
(§7) Calculation method for target protein remaining (%): Use ImageJ software to measure grayscale values of Western blot bands from drug (protein degrader)-treated samples. The grayscale value of drug-treated bands is divided by that of internal control protein bands, and the resulting quotient is normalized to obtain the relative percentage of remaining target protein after protein degrader treatment.
(§8) Target protein degradation rate (%)=1−target protein remaining (%).
In general terms: Immunoblotting shows a protein as a band on a membrane.

The next assay concerns the target T2, IKZF3 (Homo sapiens, UniProt Q96SW2+Q9UKT9).
T2 construct: expression of target proteins in cells; endogenous in cells
The assay is described as follows: Western blot degradation of IKZF3. As to the method:
as §1, §2, §3, §4, §5, §6, §7, §8

For another assay, the target named is T3, CK1α (Homo sapiens, UniProt P48729+Q96SW2).
T3 construct: expression of target proteins in cells; endogenous in cells
Nature of the assay: Western blot degradation of CK1α. As for the experimental part:
as §1, §2, §3, §4, §5, §6, §7, §8

The next assay has as its target T4, IKZF1 (Homo sapiens, UniProt Q13422+Q96SW2).
T4 construct: expression of target proteins in cells; endogenous in cells
Nature of the assay: Western blot degradation of IKZF1. As for the experimental part: as §1, §2, §3, §4, §5, §6, §7, §8

Another assay deals with T5, WEE1 (Homo sapiens, UniProt P30291+Q96SW2).
T5 construct: expression of target proteins in cells; endogenous in cells
Nature of the assay: Western blot degradation of WEE1. As for the experimental part: as §1, §2, §3, §4, §5, §6, §7, §8

Another assay has as its target T6, GSPT1 (Homo sapiens, UniProt P15170+Q96SW2).
T6 construct: expression of target proteins in cells; endogenous in cells
The assay is described as follows: Western blot degradation of GSPT1. As to the method:
as §1, §2, §3, §4, §5, §6, §7, §8

T1 sequence (Q9UKS7 whole entry): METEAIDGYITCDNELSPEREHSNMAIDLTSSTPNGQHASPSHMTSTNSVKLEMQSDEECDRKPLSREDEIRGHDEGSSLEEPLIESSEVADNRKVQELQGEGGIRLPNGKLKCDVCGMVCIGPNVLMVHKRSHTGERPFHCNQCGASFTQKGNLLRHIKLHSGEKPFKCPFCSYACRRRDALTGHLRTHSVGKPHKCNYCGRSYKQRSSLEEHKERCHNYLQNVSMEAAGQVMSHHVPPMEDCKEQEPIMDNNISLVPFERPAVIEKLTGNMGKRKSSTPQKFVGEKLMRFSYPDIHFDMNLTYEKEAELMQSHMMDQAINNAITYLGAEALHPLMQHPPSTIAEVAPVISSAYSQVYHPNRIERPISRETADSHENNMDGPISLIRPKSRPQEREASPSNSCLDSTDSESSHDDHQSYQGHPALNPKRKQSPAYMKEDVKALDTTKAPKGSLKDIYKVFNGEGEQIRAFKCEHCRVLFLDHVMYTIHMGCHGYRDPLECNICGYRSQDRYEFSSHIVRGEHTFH
T1 sequence (Q96SW2 whole entry): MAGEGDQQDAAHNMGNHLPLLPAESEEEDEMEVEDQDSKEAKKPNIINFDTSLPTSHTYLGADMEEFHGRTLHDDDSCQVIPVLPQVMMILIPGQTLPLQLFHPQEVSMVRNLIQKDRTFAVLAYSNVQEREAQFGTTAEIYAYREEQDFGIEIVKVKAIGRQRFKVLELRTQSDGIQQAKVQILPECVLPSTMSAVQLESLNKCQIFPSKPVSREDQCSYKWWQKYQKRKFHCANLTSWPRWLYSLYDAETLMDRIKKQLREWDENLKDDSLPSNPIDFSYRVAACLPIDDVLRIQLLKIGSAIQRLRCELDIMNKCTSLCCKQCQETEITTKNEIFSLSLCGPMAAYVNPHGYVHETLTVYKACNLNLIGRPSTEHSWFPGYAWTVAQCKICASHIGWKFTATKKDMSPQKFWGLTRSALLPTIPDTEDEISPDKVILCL
T1 sequence (Q16531 whole entry partner): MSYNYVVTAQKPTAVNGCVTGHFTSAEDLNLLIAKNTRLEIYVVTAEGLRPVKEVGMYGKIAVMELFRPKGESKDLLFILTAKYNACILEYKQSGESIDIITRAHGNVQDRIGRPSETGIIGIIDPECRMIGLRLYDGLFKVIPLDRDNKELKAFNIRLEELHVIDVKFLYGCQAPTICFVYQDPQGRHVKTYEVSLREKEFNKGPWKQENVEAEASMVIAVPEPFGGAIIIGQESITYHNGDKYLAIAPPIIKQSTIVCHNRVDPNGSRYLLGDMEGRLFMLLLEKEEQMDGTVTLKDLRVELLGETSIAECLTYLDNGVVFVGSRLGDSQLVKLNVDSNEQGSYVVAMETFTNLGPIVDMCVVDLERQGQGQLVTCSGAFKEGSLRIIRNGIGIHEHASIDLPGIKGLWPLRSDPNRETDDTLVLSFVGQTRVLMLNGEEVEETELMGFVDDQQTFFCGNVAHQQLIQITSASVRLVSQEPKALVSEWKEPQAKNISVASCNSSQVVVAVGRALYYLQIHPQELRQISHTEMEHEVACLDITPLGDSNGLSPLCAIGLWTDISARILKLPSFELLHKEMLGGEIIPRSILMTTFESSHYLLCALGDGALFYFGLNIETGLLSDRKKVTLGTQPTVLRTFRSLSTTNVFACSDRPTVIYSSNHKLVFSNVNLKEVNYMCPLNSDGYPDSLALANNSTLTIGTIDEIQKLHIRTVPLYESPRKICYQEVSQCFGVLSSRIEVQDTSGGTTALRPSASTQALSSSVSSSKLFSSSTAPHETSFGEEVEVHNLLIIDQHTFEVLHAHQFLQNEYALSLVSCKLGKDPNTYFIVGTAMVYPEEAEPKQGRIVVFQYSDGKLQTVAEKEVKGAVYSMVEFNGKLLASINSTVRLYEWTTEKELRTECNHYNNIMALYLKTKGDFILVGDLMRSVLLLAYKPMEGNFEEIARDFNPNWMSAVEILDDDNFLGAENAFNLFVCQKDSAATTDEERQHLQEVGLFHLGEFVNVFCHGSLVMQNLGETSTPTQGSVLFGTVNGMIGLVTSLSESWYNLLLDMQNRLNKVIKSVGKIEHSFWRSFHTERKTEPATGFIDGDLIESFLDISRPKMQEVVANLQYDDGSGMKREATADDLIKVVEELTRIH
T4 sequence (Q13422 whole entry): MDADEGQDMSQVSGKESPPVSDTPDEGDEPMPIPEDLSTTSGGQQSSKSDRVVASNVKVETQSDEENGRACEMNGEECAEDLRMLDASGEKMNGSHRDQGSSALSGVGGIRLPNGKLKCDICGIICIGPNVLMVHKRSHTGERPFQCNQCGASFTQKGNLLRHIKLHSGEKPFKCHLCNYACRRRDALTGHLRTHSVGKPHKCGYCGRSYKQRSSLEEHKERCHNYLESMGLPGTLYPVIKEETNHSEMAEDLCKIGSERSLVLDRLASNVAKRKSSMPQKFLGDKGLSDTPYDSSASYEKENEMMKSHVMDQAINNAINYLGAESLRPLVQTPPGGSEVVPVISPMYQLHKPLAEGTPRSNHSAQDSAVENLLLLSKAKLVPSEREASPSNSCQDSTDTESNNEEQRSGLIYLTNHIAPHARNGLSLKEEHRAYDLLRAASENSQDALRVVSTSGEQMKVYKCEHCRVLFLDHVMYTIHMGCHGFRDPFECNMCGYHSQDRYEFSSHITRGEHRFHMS
T4 sequence (Q96SW2 whole entry): as the sequence (Q96SW2 whole entry) above
T4 sequence (Q16531 whole entry partner): as the sequence (Q16531 whole entry partner) above
T3 sequence (P48729 whole entry): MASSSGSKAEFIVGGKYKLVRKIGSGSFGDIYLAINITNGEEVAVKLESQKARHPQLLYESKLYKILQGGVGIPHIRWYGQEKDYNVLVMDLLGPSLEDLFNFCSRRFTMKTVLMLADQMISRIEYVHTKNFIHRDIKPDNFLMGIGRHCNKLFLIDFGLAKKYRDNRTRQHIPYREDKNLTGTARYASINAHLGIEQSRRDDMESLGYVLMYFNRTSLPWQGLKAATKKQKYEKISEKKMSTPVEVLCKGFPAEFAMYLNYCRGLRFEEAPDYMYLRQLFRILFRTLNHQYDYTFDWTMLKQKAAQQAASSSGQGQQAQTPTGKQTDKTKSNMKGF
T3 sequence (Q96SW2 whole entry): as the sequence (Q96SW2 whole entry) above
T3 sequence (Q16531 whole entry partner): as the sequence (Q16531 whole entry partner) above
T6 sequence (P15170 whole entry): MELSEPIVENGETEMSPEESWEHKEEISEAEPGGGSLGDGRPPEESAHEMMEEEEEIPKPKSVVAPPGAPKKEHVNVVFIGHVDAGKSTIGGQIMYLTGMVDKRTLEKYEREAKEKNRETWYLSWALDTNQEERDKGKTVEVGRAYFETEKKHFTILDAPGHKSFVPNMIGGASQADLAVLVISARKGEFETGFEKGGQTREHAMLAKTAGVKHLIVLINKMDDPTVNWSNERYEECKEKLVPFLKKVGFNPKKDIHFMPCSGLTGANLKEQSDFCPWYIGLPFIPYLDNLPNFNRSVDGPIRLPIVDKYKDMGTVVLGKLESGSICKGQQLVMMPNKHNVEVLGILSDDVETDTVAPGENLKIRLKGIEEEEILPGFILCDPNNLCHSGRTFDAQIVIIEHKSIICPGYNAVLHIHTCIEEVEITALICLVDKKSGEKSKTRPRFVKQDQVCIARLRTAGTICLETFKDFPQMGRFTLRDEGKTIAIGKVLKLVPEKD
T6 sequence (Q96SW2 whole entry): as the sequence (Q96SW2 whole entry) above
T6 sequence (Q16531 whole entry partner): as the sequence (Q16531 whole entry partner) above
T2 sequence (Q9UKT9 whole entry): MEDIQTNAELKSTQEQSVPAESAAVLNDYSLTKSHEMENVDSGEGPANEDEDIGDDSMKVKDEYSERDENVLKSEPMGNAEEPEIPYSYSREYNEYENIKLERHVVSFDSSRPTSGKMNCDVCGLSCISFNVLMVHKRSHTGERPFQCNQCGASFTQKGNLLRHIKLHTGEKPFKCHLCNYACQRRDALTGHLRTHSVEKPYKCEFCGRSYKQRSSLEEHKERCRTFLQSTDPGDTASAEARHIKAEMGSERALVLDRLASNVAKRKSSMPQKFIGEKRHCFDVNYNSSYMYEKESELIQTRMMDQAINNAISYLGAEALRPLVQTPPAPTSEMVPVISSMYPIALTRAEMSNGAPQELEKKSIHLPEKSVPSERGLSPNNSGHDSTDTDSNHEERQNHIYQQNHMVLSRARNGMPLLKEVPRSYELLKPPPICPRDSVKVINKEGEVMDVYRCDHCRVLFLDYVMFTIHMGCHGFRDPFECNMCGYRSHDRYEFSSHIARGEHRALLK
T2 sequence (Q96SW2 whole entry): as the sequence (Q96SW2 whole entry) above
T2 sequence (Q16531 whole entry partner): as the sequence (Q16531 whole entry partner) above

Regarding `O=C1CCN(N2C(=O)c3ccc(N4C5CNCC4C5)cc3C2=O)C(=O)N1` [GT-05588, 5-(3,6-diazabicyclo[3.1.1]heptan-6-yl)-2-(2,4-dioxotetrahydropyrimidin-1(2H)-yl)isoindoline-1,3-dione], on IKZF2, the “Degradation of substrate protein IKZF2 (substrate protein remaining %)” value was “B (80%<substrate protein remaining %≤100%)”. For the same compound, at IKZF3, the “Degradation of substrate protein IKZF3 (substrate protein remaining %)” value was “A (0%≤substrate protein remaining %≤80%)”. In addition, the “Degradation of substrate protein CK1α (substrate protein remaining %)” value on CK1α is reported as “B (80%<substrate protein remaining %≤100%)”. The “Degradation of substrate protein IKZF1 (substrate protein remaining %)” value at IKZF1 was “B (80%<substrate protein remaining %≤100%)”. Moreover, the “Degradation of substrate protein WEE1 (substrate protein remaining %)” value at WEE1 was “B (80%<substrate protein remaining %≤100%)”. Further, the “Degradation of substrate protein GSPT1 (substrate protein remaining %)” value on GSPT1 is “B (80%<substrate protein remaining %≤100%)”.

As to `O=C1CCN(N2C(=O)c3cccc(N4CCNCC4)c3C2=O)C(=O)N1` [GT-05591, 2-(2,4-dioxotetrahydropyrimidin-1(2H)-yl)-4-(piperazin-1-yl)isoindoline-1,3-dione], the “Degradation of substrate protein IKZF2 (substrate protein remaining %)” value on IKZF2 is “B (80%<substrate protein remaining %≤100%)”. The “Degradation of substrate protein IKZF3 (substrate protein remaining %)” value at IKZF3 is listed as “A (0%≤substrate protein remaining %≤80%)”. Moreover, the “Degradation of substrate protein CK1α (substrate protein remaining %)” value at CK1α was “B (80%<substrate protein remaining %≤100%)”. In addition, the “Degradation of substrate protein IKZF1 (substrate protein remaining %)” value on IKZF1 was “B (80%<substrate protein remaining %≤100%)”. Further, the “Degradation of substrate protein WEE1 (substrate protein remaining %)” value on WEE1 is listed as “B (80%<substrate protein remaining %≤100%)”. At GSPT1, the “Degradation of substrate protein GSPT1 (substrate protein remaining %)” value is “B (80%<substrate protein remaining %≤100%)”.

For `O=C1CCN(N2C(=O)c3ccc(N4CCNCC4)cc3C2=O)C(=O)N1` [GT-05581, 2-(2,4-dioxotetrahydropyrimidin-1(2H)-yl)-5-(piperazin-1-yl)isoindoline-1,3-dione], the “Degradation of substrate protein IKZF2 (substrate protein remaining %)” value at IKZF2 is given as “B (80%<substrate protein remaining %≤100%)”. Also, on IKZF3, the “Degradation of substrate protein IKZF3 (substrate protein remaining %)” value was “A (0%≤substrate protein remaining %≤80%)”. On CK1α, the “Degradation of substrate protein CK1α (substrate protein remaining %)” value is recorded as “A (0%≤substrate protein remaining %≤80%)”. For the same compound, at IKZF1, the “Degradation of substrate protein IKZF1 (substrate protein remaining %)” value is on record as “B (80%<substrate protein remaining %≤100%)”. Moreover, the “Degradation of substrate protein WEE1 (substrate protein remaining %)” value at WEE1 is reported as “A (0%≤substrate protein remaining %≤80%)”. Further, the “Degradation of substrate protein GSPT1 (substrate protein remaining %)” value at GSPT1 is given as “A (0%≤substrate protein remaining %≤80%)”.

Turning to `O=C1CCN(N2C(=O)c3ccc(N4CCNCC4)c(F)c3C2=O)C(=O)N1` [GT-05592, 2-(2,4-dioxotetrahydropyrimidin-1(2H)-yl)-4-fluoro-5-(piperazin-1-yl)isoindoline-1,3-dione], the “Degradation of substrate protein IKZF2 (substrate protein remaining %)” value on IKZF2 is on record as “B (80%<substrate protein remaining %≤100%)”. Also, on IKZF3, the “Degradation of substrate protein IKZF3 (substrate protein remaining %)” value was “A (0%≤substrate protein remaining %≤80%)”. Moreover, the “Degradation of substrate protein CK1α (substrate protein remaining %)” value at CK1α is “B (80%<substrate protein remaining %≤100%)”. Besides, the “Degradation of substrate protein IKZF1 (substrate protein remaining %)” value on IKZF1 is “B (80%<substrate protein remaining %≤100%)”. Moreover, the “Degradation of substrate protein WEE1 (substrate protein remaining %)” value on WEE1 is recorded as “B (80%<substrate protein remaining %≤100%)”. Further, the “Degradation of substrate protein GSPT1 (substrate protein remaining %)” value at GSPT1 is “B (80%<substrate protein remaining %≤100%)”.

In the case of `O=C1CCN(N2Cc3c(O)cccc3C2=O)C(=O)N1` [GT-05570, 1-(4-hydroxy-1-oxoisoindolin-2-yl)dihydropyrimidine-2,4(1H, 3H)-dione], the “Degradation of substrate protein IKZF2 (substrate protein remaining %)” value on IKZF2 was “A (0%≤substrate protein remaining %≤80%)”. The “Degradation of substrate protein IKZF3 (substrate protein remaining %)” value at IKZF3 is “A (0%≤substrate protein remaining %≤80%)”. The “Degradation of substrate protein CK1α (substrate protein remaining %)” value on CK1α was “A (0%≤substrate protein remaining %≤80%)”. Moreover, the “Degradation of substrate protein IKZF1 (substrate protein remaining %)” value on IKZF1 is listed as “A (0%≤substrate protein remaining %≤80%)”. Also, on WEE1, the “Degradation of substrate protein WEE1 (substrate protein remaining %)” value was “A (0%≤substrate protein remaining %≤80%)”. For the same compound, at GSPT1, the “Degradation of substrate protein GSPT1 (substrate protein remaining %)” value is “A (0%≤substrate protein remaining %≤80%)”.

In the case of `O=CC1CCN(C2CCN(c3ccc4c(c3)C(=O)N(N3CCC(=O)NC3=O)C4=O)CC2)CC1` [GT-05595, 1′-(2-(2,4-dioxotetrahydropyrimidin-1(2H)-yl)-1,3-dioxoisoindolin-5-yl)-[1,4′-bipiperidine]-4-carbaldehyde], the “Degradation of substrate protein IKZF2 (substrate protein remaining %)” value on IKZF2 was “A (0%≤substrate protein remaining %≤80%)”. Further, at IKZF3, the “Degradation of substrate protein IKZF3 (substrate protein remaining %)” value is reported as “B (80%<substrate protein remaining %≤100%)”. Further, the “Degradation of substrate protein CK1α (substrate protein remaining %)” value on CK1α is “B (80%<substrate protein remaining %≤100%)”. Further, the “Degradation of substrate protein IKZF1 (substrate protein remaining %)” value on IKZF1 is reported as “B (80%<substrate protein remaining %≤100%)”. Besides, at WEE1, the “Degradation of substrate protein WEE1 (substrate protein remaining %)” value is given as “B (80%<substrate protein remaining %≤100%)”. On GSPT1, the “Degradation of substrate protein GSPT1 (substrate protein remaining %)” value is reported as “B (80%<substrate protein remaining %≤100%)”.

`O=C1CCN(N2C(=O)c3ccc(F)cc3C2=O)C(=O)N1` [GT-05575, 2-(2,4-dioxotetrahydropyrimidin-1(2H)-yl)-5-fluoroisoindoline-1,3-dione]: the “Degradation of substrate protein IKZF2 (substrate protein remaining %)” value at IKZF2 is listed as “A (0%≤substrate protein remaining %≤80%)”. Moreover, the “Degradation of substrate protein IKZF3 (substrate protein remaining %)” value on IKZF3 is “A (0%≤substrate protein remaining %≤80%)”. At CK1α, the “Degradation of substrate protein CK1α (substrate protein remaining %)” value is recorded as “A (0%≤substrate protein remaining %≤80%)”. In addition, on IKZF1, the “Degradation of substrate protein IKZF1 (substrate protein remaining %)” value is listed as “B (80%<substrate protein remaining %≤100%)”. In addition, the “Degradation of substrate protein WEE1 (substrate protein remaining %)” value on WEE1 is recorded as “A (0%≤substrate protein remaining %≤80%)”. Besides, the “Degradation of substrate protein GSPT1 (substrate protein remaining %)” value on GSPT1 is on record as “A (0%≤substrate protein remaining %≤80%)”.

As for `O=C1CCN(N2C(=O)c3ccc(N4CCC(N5CCNCC5)CC4)cc3C2=O)C(=O)N1` [GT-05594, 2-(2,4-dioxotetrahydropyrimidin-1(2H)-yl)-5-(4-(piperazin-1-yl)piperidin-1-yl)isoindoline-1,3-dione], at IKZF2, the “Degradation of substrate protein IKZF2 (substrate protein remaining %)” value is recorded as “A (0%≤substrate protein remaining %≤80%)”. Besides, the “Degradation of substrate protein IKZF3 (substrate protein remaining %)” value on IKZF3 is “B (80%<substrate protein remaining %≤100%)”. Besides, the “Degradation of substrate protein CK1α (substrate protein remaining %)” value on CK1α is reported as “B (80%<substrate protein remaining %≤100%)”. Besides, the “Degradation of substrate protein IKZF1 (substrate protein remaining %)” value at IKZF1 is “B (80%<substrate protein remaining %≤100%)”. In addition, the “Degradation of substrate protein WEE1 (substrate protein remaining %)” value at WEE1 was “B (80%<substrate protein remaining %≤100%)”. Moreover, at GSPT1, the “Degradation of substrate protein GSPT1 (substrate protein remaining %)” value is reported as “A (0%≤substrate protein remaining %≤80%)”.

For the compound `O=C1CCN(N2C(=O)c3ccc(CO)cc3C2=O)C(=O)N1` [GT-04536, 2-(2,4-dioxotetrahydropyrimidin-1(2H)-yl)-5-(hydroxymethyl)isoindoline-1,3-dione], the “Degradation of substrate protein IKZF2 (substrate protein remaining %)” value at IKZF2 is “B (80%<substrate protein remaining %≤100%)”. The “Degradation of substrate protein IKZF3 (substrate protein remaining %)” value at IKZF3 is on record as “B (80%<substrate protein remaining %≤100%)”. Further, the “Degradation of substrate protein CK1α (substrate protein remaining %)” value at CK1α is on record as “B (80%<substrate protein remaining %≤100%)”. In addition, the “Degradation of substrate protein IKZF1 (substrate protein remaining %)” value at IKZF1 was “B (80%<substrate protein remaining %≤100%)”. The “Degradation of substrate protein WEE1 (substrate protein remaining %)” value at WEE1 is “B (80%<substrate protein remaining %≤100%)”. Further, the “Degradation of substrate protein GSPT1 (substrate protein remaining %)” value on GSPT1 is recorded as “A (0%≤substrate protein remaining %≤80%)”.

As to `NCc1ccc2c(c1)C(=O)N(N1CCC(=O)NC1=O)C2=O` [GT-07968, 5-(aminomethyl)-2-(2,4-dioxotetrahydropyrimidin-1(2H)-yl)isoindoline-1,3-dione], the “Degradation of substrate protein IKZF2 (substrate protein remaining %)” value at IKZF2 is reported as “A (0%≤substrate protein remaining %≤80%)”. Besides, on IKZF3, the “Degradation of substrate protein IKZF3 (substrate protein remaining %)” value was “A (0%≤substrate protein remaining %≤80%)”. Also, the “Degradation of substrate protein CK1α (substrate protein remaining %)” value at CK1α is on record as “A (0%≤substrate protein remaining %≤80%)”. On IKZF1, the “Degradation of substrate protein IKZF1 (substrate protein remaining %)” value is recorded as “A (0%≤substrate protein remaining %≤80%)”. The “Degradation of substrate protein WEE1 (substrate protein remaining %)” value on WEE1 is “A (0%≤substrate protein remaining %≤80%)”. In addition, the “Degradation of substrate protein GSPT1 (substrate protein remaining %)” value on GSPT1 is listed as “B (80%<substrate protein remaining %≤100%)”.
